This passage reports melting point results from patent publication US7662825B2, “N-pyrazinyl-phenylsulphonamides and their use in the treatment of chemokine mediated diseases” (AstraZeneca AB, priority 2002, dated 2010).

`COc1ccc(COc2nc(Cl)cnc2NS(=O)(=O)c2cccc(Cl)c2Cl)cc1` [Example 97, 2,3-Dichloro-N-[5-chloro-3-(4-methoxyphenylmethoxy)-2-pyrazinyl]benzenesulphonamide]: the melting point (as a rule, the temperature of the solid-liquid transition) lay in the range of 163 to 164 °C.
In the case of `O=S(=O)(Nc1ncc(Cl)nc1OCc1cccc(CO)c1)c1cccc(Cl)c1Cl` [Example 106, 2,3-Dichloro-N-[5-chloro-3-(3-hydroxymethylphenylmethoxy)-2-pyrazinyl]benzenesulphonamide], the melting point fell in the range of 162 to 163 °C.
To `COc1nc(C#N)cnc1NS(=O)(=O)c1cccc(Cl)c1Cl` [Example 190, 2,3-Dichloro-N-(5-cyano-3-methoxy-2-pyrazinyl)benzenesulphonamide] belongs 239 to 240 °C.
Under `O=S(=O)(Nc1ncc(Cl)nc1OCc1cccnc1)c1cccc(Cl)c1F` [Example 96, 3-Chloro-N-[5-chloro-3-(3-pyridinylmethoxy)-2-pyrazinyl]-2-fluorobenzenesulphonamide] stands 177 to 178 °C; under `O=S(=O)(Nc1ncc(Cl)nc1OCc1cccc(CO)n1)c1cccc(Cl)c1Cl` [Example 143, 2,3-Dichloro-N-[5-chloro-3-{[6-(hydroxymethyl)-2-pyridinyl]methoxy}-2-pyrazinyl]benzenesulphonamide], 220 °C.
To `COc1nc(NCCNC(C)=O)c(Cl)nc1NS(=O)(=O)c1cccc(Cl)c1Cl` [Example 76, N-{2-[3-Chloro-5-(2,3-dichlorobenzenesulphonylamino)-6-methoxy-2-pyrazinylamino]ethyl}acetamide] belongs 150 to 152 °C; to `COc1nc(C(F)F)cnc1NS(=O)(=O)c1cccc(Cl)c1Cl` [Example 206, 2,3-Dichloro-N-(5-difluoromethyl-3-methoxy-2-pyrazinyl)benzenesulphonamide], 117 to 118 °C; to `COc1ncc(Cl)nc1NS(=O)(=O)c1ccc(Cl)c(Cl)c1` [Example 42, N-(6-Chloro-3-methoxy-2-pyrazinyl)-3,4-dichlorobenezenesulphonamide], 176 to 177 °C.
`O=S(=O)(Nc1nc(Cl)cnc1OCc1ccccn1)c1cccc(Cl)c1Cl` [Example 100, 2,3-Dichloro-N-[6-chloro-3-(2-pyridinylmethoxy)-2-pyrazinyl]benzenesulphonamide] yielded a melting point of 201 to 203 °C.
As for `O=S(=O)(Nc1ncc(Cl)nc1OCc1ccc(CNC2CC2)o1)c1cccc(Cl)c1Cl` [Example 210, 2,3-Dichloro-N-[5-chloro-3-(5-cyclopropylaminomethyl-2-furanylmethoxy)-2-pyrazinyl]-benzenesulphonamide], the melting point is 175 to 176 °C.
For `COC(=O)c1cnc(NS(=O)(=O)c2cccc(Cl)c2Cl)c(OC)n1` [Example 113, 5-(2,3-Dichlorobenzenesuphonylamino)-6-methoxypyrazine-2-carboxylic acid, methyl ester], the melting point fell in the range of 120 to 121 °C.
`O=S(=O)(Nc1ncc(Br)nc1OC[C@@H]1CCCN1)c1cccc(Cl)c1Cl` [Example 133, N-[5-Bromo-3-[(2S)-2-pyrrolidinylmethoxy]-2-pyrazinyl]-2,3-dichlorobenzenesulphonamide]: the melting point was 199 to 200 °C.
`Cc1cnc(NS(=O)(=O)c2cccc(Cl)c2Cl)c(OCc2ccc[n+]([O-])c2)n1` [Example 86] showed a melting point of 223 to 228 °C.
To `COc1nc(Cl)cnc1NS(=O)(=O)c1ccccc1Cl` [Example 51, 2-Chloro-N-(5-chloro-3-methoxy-2-pyrazinyl)benzenesulphonamide] belongs 190 to 192 °C; to `CN(C)Cc1ccc(COc2nc(Br)cnc2NS(=O)(=O)c2cccc(Cl)c2Cl)o1` [Example 176, N-[5-Bromo-3-(5-dimethylaminomethyl-2-furanylmethoxy)-2-pyrazinyl]-2,3-dichloro-benzenesulphonamide], 206 to 207 °C; to `COc1nccnc1NS(=O)(=O)c1cccc(Cl)c1Cl` [Example 30, 2,3-Dichloro-N-(3-methoxy-2-pyrazinyl)benzenesulphonamide], 183 to 184 °C.
`O=S(=O)(Nc1ncc(Br)nc1OCc1cccnn1)c1cccc(Cl)c1Cl` [Example 33] registered a melting point of 115 to 120 °C.
For `O=S(=O)(Nc1nccnc1OCc1ccccn1)c1cccc(Cl)c1Cl` [Example 28, 2,3-Dichloro-N-[3-(2-pyridinylmethoxy)-2-pyrazinyl]benzenesulphonamide], the melting point lay in the range of 167 to 168 °C.
To `COc1nc(SCC(N)=O)cnc1NS(=O)(=O)c1cccc(Cl)c1Cl` [Example 169, 2-[5-(2,3-Dichlorobenzenesulphonylamino)-6-methoxy-2-pyrazinylsulphanyl]acetamide] belongs 163 to 164 °C; to `COc1nc(CO)c(Cl)nc1NS(=O)(=O)c1cccc(Cl)c1Cl` [Example 127, 2,3-Dichloro-N-[6-chloro-5-(hydroxymethyl)-3-methoxypyrazin-2-yl]benzenesulphonamide], 145 to 147 °C.
To `COc1ncc(Cl)nc1NS(=O)(=O)c1ccc(Cl)cc1Cl` [Example 41, N-(6-Chloro-3-methoxy-2-pyrazinyl)-2,4-dichlorobenezenesulphonamide] belongs 189 to 190 °C; to `COc1nc(Br)cnc1NS(=O)(=O)c1ccccc1C#N` [Example 184, N-(5-Bromo-3-methoxypyrazinyl)-2-cyanobenzenesulphonamide], 190 to 191.5 °C.
Consider `COc1nc(-c2ccc(F)cc2F)cnc1NS(=O)(=O)c1cccc(Cl)c1Cl` [Example 81, 2,3-Dichloro-N-[5-(2,4-difluorophenyl)-3-methoxy-2-pyrazinyl]benzenesulphonamide], for which the melting point lay in the range of 169 to 170 °C.
Under `O=S(=O)(Nc1ncc(Br)nc1OCc1cccnc1)c1cccc(Cl)c1Cl` [Example 34, N-[5-Bromo-3-(3-pyridinylmethoxy)-2-pyrazinyl]-2,3-dichlorobenzenesulphonamide] stands 204 to 206 °C; under `COc1nc(Cl)c(Cl)nc1NS(=O)(=O)c1cccc(Cl)c1` [Example 61, 3-Chloro-N-(5,6-dichloro-3-methoxy-2-pyrazinyl)benzenesulphonamide], 171 to 172 °C.
In the case of `CCCCOc1nc(Cl)cnc1NS(=O)(=O)c1cccc(Cl)c1Cl` [Example 91, N-(3-Butoxy-5-chloro-2-pyrazinyl)-2,3-dichlorobenzenesulphonamide], the melting point lay in the range of 133 to 134 °C.
On to `COc1nc(C)cnc1NS(=O)(=O)c1cccc(Cl)c1C` [Example 43, 3-Chloro-N-(3-methoxy-5-methyl-2-pyrazinyl)-2-methylbenezenesulphonamide], for which the melting point fell in the range of 133 to 135 °C.
For the compound `COc1nc(NC(=O)CO)cnc1NS(=O)(=O)c1cccc(Cl)c1Cl` [Example 200, N-[5-(2,3-Dichlorophenylsulphonylamino)-6-methoxy-2-pyrazinyl]-2-hydroxyacetamide], the melting point was in the range of 153 to 155 °C.
To `COc1nc(SCCO)cnc1NS(=O)(=O)c1cccc(Cl)c1Cl` [Example 177, 2,3-Dichloro-N-[5-(2-hydroxyethylsulphanyl)-3-methoxy-2-pyrazinyl]benzenesulphonamide] belongs 180 to 181 °C; to `COC(=O)c1cccc(COc2nc(Cl)cnc2NS(=O)(=O)c2cccc(Cl)c2Cl)c1` [Example 104, 3-[6-Chloro-3-(2,3-dichlorobenzenesulphonylamino)-2-pyrazinyloxymethyl]benzoic acid methyl ester], 175 to 176 °C; to `CNCc1cccc(COc2nc(Cl)cnc2NS(=O)(=O)c2cccc(Cl)c2Cl)c1` [Example 107, 2,3-Dichloro-N-[5-chloro-3-(3-methylaminomethylphenylmethoxy)-2-pyrazinyl]benzenesulphonamide], 167 to 168 °C.
`COCCOc1nc(OC)c(NS(=O)(=O)c2cccc(Cl)c2Cl)nc1Cl` [Example 70, 2,3-Dichloro-N-[6-chloro-3-methoxy-5-(2-methoxyethoxy)-2-pyrazinyl]benzenesulphonamide] showed a melting point of 193 to 194 °C.
Turning to `COc1ncc(Cl)nc1NS(=O)(=O)c1ccc(Cl)cc1` [Example 40, 4-Chloro-N-(6-chloro-3-methoxy-2-pyrazinyl)benezenesulphonamide], the melting point was in the range of 174 to 175 °C.
For `O=S(=O)(Nc1ncc(Cl)nc1OCc1cncnc1)c1cccc(Cl)c1Cl` [Example 37, N-[5-Chloro-3-(5-pyrimidinylmethoxy)-2-pyrazinyl]-2,3-dichlorobenzenesulphonamide], the melting point lay within 205 to 206 °C.
`COc1nc(Oc2ccc(C(=O)O)cc2)cnc1NS(=O)(=O)c1cccc(Cl)c1Cl` [Example 73, 4-[5-(2,3-Dichlorobenzenesulphonylamino)-6-methoxy-2-pyrazinyloxy]benzoic acid]: the melting point was in the range of 186 to 187 °C.
To `COc1ccc(COc2nccnc2NS(=O)(=O)c2cccc(Cl)c2Cl)cn1` [Example 128, 2,3-Dichloro-N-{3-[(6-methoxy-3-pyridinyl)methoxy]-2-pyrazinyl}benzenesulphonamide] belongs 187 to 188 °C; to `COC(=O)COc1cnc(NS(=O)(=O)c2cccc(Cl)c2Cl)c(OC)n1` [Example 199, {[5-(2,3-Dichlorophenylsulfonylamino)-6-methoxy-2-pyrazinyl]oxy}acetic acid, methyl ester], 185 to 190 °C; to `N#Cc1cnc(NS(=O)(=O)c2cccc(Cl)c2Cl)c(OCc2cccnc2)n1` [Example 78, 2,3-Dichloro-N-[5-cyano-3-(3-pyridinylmethoxy)-2-pyrazinyl]benzenesulphonamide], 222 to 224 °C.
As to `Cc1cnc(NS(=O)(=O)c2cccc(Cl)c2Cl)c(OCc2ccco2)n1` [Example 20, 2,3-Dichloro-N-[3-(2-furanylmethoxy)-5-methyl-2-pyrazinyl]benzenesulphonamide], the melting point lay in the range of 127 to 129 °C.
As for `O=S(=O)(Nc1ncc(Cl)nc1OCc1ccncc1)c1cccc(Cl)c1Cl` [Example 87, 2,3-Dichloro-N-[5-chloro-3-(4-pyridinylmethoxy)-2-pyrazinyl]benzenesulphonamide], the melting point was 226 to 229 °C (dec.).
